Test results reported in patent US20240327393A1 (SIRONAX LTD., priority 2021, published 2024).
Read-outs that look alike come from different tables or passages of the source.

System: HT-1080 (ATCC, CCL-121) cells
Test: HT-1080 cell viability assay with ferroptosis inducer RSL3 (Cell Titer-Glo)
Type: cell-based
Details: HT-1080 cells treated with RSL3, 3-fold, 10-point dilution, 1.1 μM highest concentration, Table 2, read-out: EC50 (nM), ferroptosis inhibitory activity
In short: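 EC50 was derived by sigmoidal dose-response regression of CellTiter-Glo luminescence viability, expressed relative to untreated wells. Compounds were tested in a ten-point, threefold dilution series (highest 1.1 μM) in the presence of the ferroptosis inducer RSL3. HT-1080 cells had been seeded at 6000 per well and grown overnight first.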

Structure (SMILES) | EC50 (Homo sapiens) [nM] | EC50 [nM]
CC1CN(c2ccc(Nc3ccc4c(c3)OCC(=O)N4)cc2)CC(C)O1 (stereo not drawn) [Compound 140, 7-((4-(2,6-dimethylmorpholino)phenyl)amino)-2H-benzo[b][1,4]oxazin-3(4H)-one] | 0.1 to 100 | 
CC1CN(c2ccc(Nc3ccc4c(c3)OC(C)C(=O)N4)cc2)CC(C)O1 (stereo not drawn) [Compound 144, 7-((4-(2,6-dimethylmorpholino)phenyl)amino)-2-methyl-2H-benzo[b][1,4]oxazin-3(4H)-one] |  | 0.1 to 100
Cc1cc(Nc2ccc3c(c2)OCC(=O)N3)ccc1N1CC(C)OC(C)C1 (stereo not drawn) [Compound 145, 7-((4-(2,6-dimethylmorpholino)-3-methylphenyl)amino)-2H-benzo[b][1,4]oxazin-3(4H)-one] |  | 0.1 to 100
Cc1cc(Nc2ccc3c(c2)OCC(=O)N3)cnc1N1CCC(C(F)(F)F)CC1 [Compound 150, 7-((5-methyl-6-(4-(trifluoromethyl)piperidin-1-yl)pyridin-3-yl)amino)-2H-benzo[b][1,4]oxazin-3(4H)-one] | 0.1 to 100 | 
CCC1Oc2cc(Nc3ccc(N4CC(C)OC(C)C4)cc3)ccc2NC1=O (stereo not drawn) [Compound 154, 7-((4-(2,6-dimethylmorpholino)phenyl)amino)-2-ethyl-2H-benzo[b][1,4]oxazin-3(4H)-one] | 0.1 to 100 | 
Cc1cc(Nc2ccc3c(c2)OCC(=O)N3C)cc(C)c1N1CCC(C(F)(F)F)CC1 [Compound 155, 7-((3,5-dimethyl-4-(4-(trifluoromethyl)piperidin-1-yl)phenyl)amino)-4-methyl-2H-benzo[b][1,4]oxazin-3(4H)-one] | 0.1 to 100 | 
CN1C(=O)COc2cc(Nc3ccc(N4CCC(C(F)(F)F)CC4)cc3)c(F)cc21 [Compound 156, 6-fluoro-4-methyl-7-((4-(4-(trifluoromethyl)piperidin-1-yl)phenyl)amino)-2H-benzo[b][1,4]oxazin-3(4H)-one] | 0.1 to 100 | 
Cc1cc2c(cc1Nc1ccc(N3CCC(C(F)(F)F)CC3)cc1)OCC(=O)N2C [Compound 157] | 0.1 to 100 | 
CN1C(=O)COc2cc(Nc3cc(F)c(N4CCC(O)(C(F)(F)F)CC4)c(F)c3)ccc21 [Compound 160, 7-((3,5-difluoro-4-(4-hydroxy-4-(trifluoromethyl)piperidin-1-yl)phenyl)amino)-4-methyl-2H-benzo[b][1,4]oxazin-3(4H)-one] | 0.1 to 100 | 
COC1(C(F)(F)F)CCN(c2c(F)cc(Nc3ccc4c(c3)OCC(=O)N4C)cc2F)CC1 [Compound 161] | 0.1 to 100 | 
COC1(C(F)(F)F)CCN(c2ccc(Nc3ccc4c(c3)OCC(=O)N4)cc2)CC1 [Compound 162, 7-((4-(4-methoxy-4-(trifluoromethyl)piperidin-1-yl)phenyl)amino)-2H-benzo[b][1,4]oxazin-3(4H)-one] | 0.1 to 100 | 
CN1CCN(CC(=O)N2Cc3ccc(Nc4ccc(N5CCCCC5)cc4)cc3C2)CC1 [Compound 163, 2-(4-methylpiperazin-1-yl)-1-(5-((4-(piperidin-1-yl)phenyl)amino)isoindolin-2-yl)ethan-1-one] | 0.1 to 100 | 
CN1CCN(CC(=O)N2Cc3ccc(Nc4ccc(N5CCC(C(F)(F)F)CC5)c(F)c4)cc3C2)CC1 [Compound 164] | 0.1 to 100 | 
FC1(F)CCN(c2ccc(Nc3ccc4c(c3)CNC4)cc2)CC1 [Compound 165, N-(4-(4,4-difluoropiperidin-1-yl)phenyl)isoindolin-5-amine] | 0.1 to 100 | 
CCN1Cc2ccc(Nc3ccc(N4CCC(F)(F)CC4)cc3)cc2C1 [Compound 167, N-(4-(4,4-difluoropiperidin-1-yl)phenyl)-2-ethylisoindolin-5-amine] | 0.1 to 100 | 
CC1CCN(c2ccc(Nc3ccc4c(c3)C(=O)N(C)C4)cc2)CC1 [Compound 170, 2-methyl-6-((4-(4-methylpiperidin-1-yl)phenyl)amino)isoindolin-1-one] | 0.1 to 100 | 
CN1Cc2ccc(Nc3ccc(N4CCC(C(F)(F)F)CC4)cc3)cc2C1=O [Compound 171, 2-methyl-6-((4-(4-(trifluoromethyl)piperidin-1-yl)phenyl)amino) isoindolin-1-one] | 0.1 to 100 | 

Continued, values first:

EC50 (Homo sapiens) [nM] | EC50 [nM] | Structure (SMILES)
0.1 to 100 |  | Cc1cc(N2CC(C)OC(C)C2)ccc1Nc1cc(F)c2c(c1)OCC(=O)N2C (stereo not drawn) [Compound 141, ((4-(2,6-dimethylmorpholino)-2-methylphenyl)amino)-5-fluoro-4-methyl-2H-benzo[b][1,4]oxazin-3(4H)-one]
0.1 to 100 |  | Cc1cc(Nc2ccc3c(c2)OCC(=O)N3C)cnc1N1CCC(C(F)(F)F)CC1 [Compound 142, 4-methyl-7-((5-methyl-6-(4-(trifluoromethyl)piperidin-1-yl)pyridin-3-yl)amino)-2H-benzo[b][1,4]oxazin-3(4H)-one]
0.1 to 100 |  | Cc1cc(Nc2ccc3c(c2)OCC(=O)N3C)cnc1N1CC(C)OC(C)C1 (stereo not drawn) [Compound 143, 7-((6-(2,6-dimethylmorpholino)-5-methylpyridin-3-yl)amino)-4-methyl-2H-benzo[b][1,4]oxazin-3(4H)-one]
0.1 to 100 |  | Cc1cc(Nc2ccc3c(c2)OCC(=O)N3)ccc1N1CC2CCC(C1)O2 [Compound 146, 7-((4-(8-oxa-3-azabicyclo[3.2.1]octan-3-yl)-3-methylphenyl)amino)-2H-benzo[b][1,4]oxazin-3(4H)-one]
0.1 to 100 |  | CCC1CN(c2ccc(Nc3ccc4c(c3)OCC(=O)N4C)c(C)c2)CCO1 (stereo not drawn) [Compound 147, 7-((4-(2-ethylmorpholino)-2-methylphenyl)amino)-4-methyl-2H-benzo[b][1,4]oxazin-3(4H)-one]
0.1 to 100 |  | CC1CN(c2ccc(Nc3ccc4c(c3)OCC(=O)N4)cc2)CCO1 (stereo not drawn) [Compound 148, 7-((4-(2-methylmorpholino)phenyl)amino)-2H-benzo[b][1,4]oxazin-3(4H)-one]
0.1 to 100 |  | CC1CN(c2ccc(Nc3ccc4c(c3)OCC(=O)N4C)cc2)CCO1 (stereo not drawn) [Compound 149, 4-methyl-7-((4-(2-methylmorpholino)phenyl)amino)-2H-benzo[b][1,4]oxazin-3(4H)-one]
0.1 to 100 |  | Cc1cc(Nc2ccc3c(c2)OCC(=O)N3)cnc1N1C[C@@H](C)O[C@@H](C)C1 [Compound 151, 7-((6-(2,6-dimethylmorpholino)-5-methylpyridin-3-yl)amino)-2H-benzo[b][1,4]oxazin-3(4H)-one]
0.1 to 100 |  | O=C1CCc2cc(Nc3ccc(N4CCC(C(F)(F)F)CC4)cc3)ccc2N1 [Compound 158, 6-((4-(4-(trifluoromethyl)piperidin-1-yl)phenyl)amino)-3,4-dihydroquinolin-2(1H)-one]
0.1 to 100 |  | CC1CN(c2c(F)cc(Nc3ccc4c(c3)OCC(=O)N4)cc2F)CC(C)O1 (stereo not drawn) [Compound 159, 7-((4-(2,6-dimethylmorpholino)-3,5-difluorophenyl)amino)-2H-benzo[b][1,4]oxazin-3(4H)-one]
0.1 to 100 |  | CC(=O)N1Cc2ccc(Nc3ccc(N4CCC(F)(F)CC4)cc3)cc2C1 [Compound 166, 1-(5-((4-(4,4-difluoropiperidin-1-yl)phenyl)amino)isoindolin-2-yl) ethan-1-one]
0.1 to 100 |  | CN1Cc2ccc(Nc3ccc(N4CCC(F)(F)CC4)cc3)cc2C1=O [Compound 168, 6-((4-(4,4-difluoropiperidin-1-yl)phenyl)amino)-2-methylisoindolin-1-one]
0.1 to 100 |  | CN1Cc2ccc(Nc3ccc(N4CCC(C(F)(F)F)CC4)c(F)c3)cc2C1=O [Compound 169, 6-((3-fluoro-4-(4-(trifluoromethyl)piperidin-1-yl)phenyl)amino)-2-methylisoindolin-1-one]
